Measured values reported in publication PMC7531004, “Discovery of gramicidin A analogues with altered activities by multidimensional screening of a one-bead-one-compound library” (Nature Communications, 2020).
“And” between values parts separate entries of the source, which are not always exact repeats. Equal entries are not always repeated. Where two headings read alike, the source gives them in different places. Where a SMILES comes first, the peptide text is derived from it. [ ]: non-standard residue; d: D form. The star is where a group is joined. NHCH2CH2OH = OCCN*; For = O=C*

Experiments:
[1] = tested on: Enterococcus faecalis JCM5803
Procedure, shortened: (§1)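 MICs by CLSI broth microdilution in cation-adjusted Mueller Hinton Broth, with 5% laked horse blood added for streptococci, over 64–0.00024 µg/mL peptide.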

[2] = tested on: Listeria monocytogenes 10403S
Procedure, shortened: as §1

[3] = tested on: Streptococcus agalactiae JCM5671
Procedure, shortened: as §1

[4] = tested on: Streptococcus pneumoniae NBRC 102642
Procedure, shortened: as §1

[5] = tested on: Streptococcus pyogenes SSI-9
Procedure, shortened: as §1

[6] = tested on: MSSA1 (methicillin-susceptible Staphylococcus aureus); type: cell-based
[7] = Membrane disruption assay of purified peptides (carboxyfluorescein leakage); type: biochemical; set-up: key: % lysis; Triton X-100 = 100%, DMSO = 0%; settings: three replicate lines
[8] = H+/Na+ transport assay of purified peptides; settings: for Supplementary Figure 5 dose-response value (H+/Na+ transport): three replicate lines

CC(C)C[C@@H](NC(=O)[C@H](C)NC(=O)CNC(=O)[C@@H](NC=O)C(C)C)C(=O)N[C@@H](C)C(=O)N[C@@H](C(=O)N[C@H](C(=O)N[C@@H](C(=O)N[C@@H](Cc1c[nH]c2ccccc12)C(=O)N[C@H](CC(C)C)C(=O)N[C@@H](Cc1c[nH]c2ccccc12)C(=O)N[C@H](CC(C)C)C(=O)N[C@@H](Cc1c[nH]c2ccccc12)C(=O)N[C@H](CC(C)C)C(=O)N[C@@H](Cc1c[nH]c2ccccc12)C(=O)NCCO)C(C)C)C(C)C)C(C)C [compound 1, Gramicidin A] (For-VGA[dL]A[dV]V[dV]W[dL]W[dL]W[dL]W-NHCH2CH2OH)
IC50 (IC50, mammalian cytotoxicity assay): 4.86 nM
IC50 (cytotoxicity against P388 cells/IC50): 5.81 ± 0.99 nM
antibacterial activity/MIC ([1]; E. faecalis): 0.5 µg/mL
Antibacterial activity MIC ([1]; JCM5803): 0.27 µM
Antibacterial activity MIC ([2]; 10403S): 4.3 µM
antibacterial activity/MIC ([2]; L. monocytogenes): 8 µg/mL
Antibacterial activity MIC ([3]; JCM5671): 1.1 µM
antibacterial activity/MIC ([3]; S. agalactiae): 2 µg/mL
Antibacterial activity MIC ([4]; NBRC 102642): 0.0083 µM
antibacterial activity/MIC ([4]; S. pneumoniae): 0.016 µg/mL
antibacterial activity/MIC ([5]; S. pyogenes): 0.063 µg/mL
Antibacterial activity MIC ([5]; SSI-9): 0.033 µM
antibacterial activity/MIC [6]: 32 µg/mL
Supplementary Figure 1 dose-response value ([7]; concentration 0.000512 nM): 1.36 and 3.869 and -1.044
Supplementary Figure 1 dose-response value ([7]; concentration 0.00256 nM): 3.2 and 1.0665 and -1.239
Supplementary Figure 1 dose-response value ([7]; concentration 0.0128 nM): 3.406 and 6.277 and 1.505
Supplementary Figure 1 dose-response value ([7]; concentration 0.064 nM): 4.522 and 0.6394 and 10.119
Supplementary Figure 1 dose-response value ([7]; concentration 0.32 nM): 0.03727 and -1.4564 and 8.0175
Supplementary Figure 1 dose-response value ([7]; concentration 1.6 nM): 1.309 and 1.672 and 5.415
Supplementary Figure 1 dose-response value ([7]; concentration 8 nM): 11.9937 and 6.964 and 7.105
Supplementary Figure 1 dose-response value ([7]; concentration 40 nM): 14.5572 and 22.409 and 17.147
Supplementary Figure 1 dose-response value ([7]; concentration 200 nM): 26.5638 and 29.1236 and 30.6096
Supplementary Figure 1 dose-response value ([7]; concentration 1000 nM): 36.4056 and 34.1405 and 30.0737
Supplementary Figure 1 dose-response value ([7]; concentration 5000 nM): 57.2698 and 45.8291 and 46.6701
EC55.2 value (threshold concentration of one-point ion transport assay) ([8]; H+/Na+ transport): 5.9 nM
Supplementary Figure 5 dose-response value (H+/Na+ transport) ([8]; concentration 0.000512 nM): 0.1393 and -1.026 and 0.8168
Supplementary Figure 5 dose-response value (H+/Na+ transport) ([8]; concentration 0.00256 nM): 2.399 and 0.2926 and 2.304
Supplementary Figure 5 dose-response value (H+/Na+ transport) ([8]; concentration 0.0128 nM): 3.982 and 3.019 and 2.7829
Supplementary Figure 5 dose-response value (H+/Na+ transport) ([8]; concentration 0.064 nM): 7.464 and 5.495 and 5.604
Supplementary Figure 5 dose-response value (H+/Na+ transport) ([8]; concentration 0.32 nM): 9.988 and 12.6133 and 15.027
Supplementary Figure 5 dose-response value (H+/Na+ transport) ([8]; concentration 1.6 nM): 25.261 and 17.8892 and 24.5099
Supplementary Figure 5 dose-response value (H+/Na+ transport) ([8]; concentration 8 nM): 43.5648 and 41.9563 and 41.0019
Supplementary Figure 5 dose-response value (H+/Na+ transport) ([8]; concentration 40 nM): 66.4966 and 62.6758 and 58.9306
Supplementary Figure 5 dose-response value (H+/Na+ transport) ([8]; concentration 200 nM): 70.2683 and 64.7328 and 64.4099
Supplementary Figure 5 dose-response value (H+/Na+ transport) ([8]; concentration 1000 nM): 68.3656 and 69.2628 and 73.7672
Supplementary Figure 5 dose-response value (H+/Na+ transport) ([8]; concentration 5000 nM): 72.2926 and 68.3983 and 71.8941
EC50 ([8]; read-out: EC50, H+/Na+ transport assay, 1st experiment): 4.66 nM
EC50 ([8]; read-out: EC50, H+/Na+ transport assay, 2nd experiment): 3.91 nM
EC50 ([8]; read-out: EC50, H+/Na+ transport assay, 3rd experiment): 4.81 nM
EC50 ([8]; read-out: H+/Na+ transport activity EC50, EYPC/EYPG (19:1) LUVs): 4.5 nM
EC50 ([8]; read-out: H+/Na+ transport activity/EC50, mean ± SD of three independent experiments): 4.46 ± 0.48 nM
